Tests used:
[1] = system: ISC-enriched organoids; experiment: Primary screen, 384-well 2.5-D organoid differentiation (ENR+CD, 6 days): carbachol-induced lysozyme secretion (LYZ.S); format: cell-based, murine; details: for Dose.FC.LYZ.S: FC vs plate median; for Dose.FC.LYZ.S (log 2 fold change, carbachol-induced lysozyme secretion) / Dose.FC.LYZ.S (log 2 fold change): vs plate median
Description: (§1) High-throughput screening.

[2] = system: ISC-enriched organoids; experiment: Primary screen, 384-well 2.5-D organoid differentiation (ENR+CD, 6 days, Target Selective Inhibitor Library, vs whole-plate median): ATP (CellTiter-Glo 3D, CTG); details: for Dose.FC.CTG: FC vs plate median; for Z.CTG: standard z score of FC; for Dose.FC.CTG (log 2 fold change, ATP) / Dose.FC.CTG (log 2 fold change): vs plate median
[3] = system: ISC-enriched organoids; experiment: Primary screen, 384-well 2.5-D organoid differentiation (ENR+CD, 6 days): basal lysozyme secretion (LYZ.NS); format: cell-based, murine; details: for Dose.FC.LYZ.NS: FC vs plate median; for Z.LYZ.NS: standard z score of FC; for Dose.FC.LYZ.NS (log 2 fold change, basal lysozyme secretion) / Dose.FC.LYZ.NS (log 2 fold change): vs plate median
Description: as §1

[4] = primary screen, dose 0.08 uM, ENR+CD 6 days
[5] = primary screen, dose 0.40 uM, ENR+CD 6 days
[6] = primary screen, dose 2.00 uM, ENR+CD 6 days
[7] = primary screen, dose 10.00 uM, ENR+CD 6 days

Row | Compound | Z.CTG ([2]; Dose 0.08 uM) | Z.CTG ([2]; Dose 0.40 uM) | Z.CTG ([2]; Dose 2.00 uM) | Z.CTG ([2]; Dose 10.00 uM) | Z.LYZ.NS ([3]; Dose 0.08 uM) | Z.LYZ.NS ([3]; Dose 0.40 uM) | Z.LYZ.NS ([3]; Dose 2.00 uM) | Z.LYZ.NS ([3]; Dose 10.00 uM) | Dose.FC.LYZ.S ([1]; Dose 0.08 uM, ENR+CD, 6 days) [log 2 fold change] | Dose.FC.LYZ.S ([1]; Dose 0.40 uM, ENR+CD, 6 days) [log 2 fold change] | Dose.FC.LYZ.S ([1]; Dose 2.00 uM, ENR+CD, 6 days) [log 2 fold change] | Dose.FC.LYZ.S ([1]; Dose 10.00 uM, ENR+CD, 6 days) [log 2 fold change] | Dose.FC.CTG ([2]; Dose 0.08 uM, ENR+CD, 6 days) [log 2 fold change] | Dose.FC.CTG ([2]; Dose 0.40 uM, ENR+CD, 6 days) [log 2 fold change] | Dose.FC.CTG ([2]; Dose 2.00 uM, ENR+CD, 6 days) [log 2 fold change] | Dose.FC.CTG ([2]; Dose 10.00 uM, ENR+CD, 6 days) [log 2 fold change] | Dose.FC.LYZ.NS ([3]; Dose 0.08 uM, ENR+CD, 6 days) [log 2 fold change] | Dose.FC.LYZ.NS ([3]; Dose 0.40 uM, ENR+CD, 6 days) [log 2 fold change] | Dose.FC.LYZ.NS ([3]; Dose 2.00 uM, ENR+CD, 6 days) [log 2 fold change] | Dose.FC.LYZ.NS ([3]; Dose 10.00 uM, ENR+CD, 6 days) [log 2 fold change] | also measured
1 | Cc1ccc(S(=O)(=O)c2ccc([N+](=O)[O-])o2)cc1 [NSC697923] | −0.123 | −0.033 | −0.241 | −1.867 | 0.789 | 0.441 | −0.906 | −1.338 | – | – | – | – | – | – | – | – | – | – | – | – | Dose.FC.LYZ.S ([1]; Dose 0.08 uM, primary screen): 0.036 log 2 fold change; Dose.FC.LYZ.S ([1]; Dose 0.40 uM, primary screen): 0.108 log 2 fold change; Dose.FC.LYZ.S ([1]; Dose 2.00 uM, primary screen): −0.154 log 2 fold change; Dose.FC.LYZ.S ([1]; Dose 10.00 uM, primary screen): −0.270 log 2 fold change; Dose.FC.CTG ([2]; Dose 0.08 uM, primary screen): −0.052 log 2 fold change; Dose.FC.CTG ([2]; Dose 0.40 uM, primary screen): −0.014 log 2 fold change; Dose.FC.CTG ([2]; Dose 2.00 uM, primary screen): −0.101 log 2 fold change; Dose.FC.CTG ([2]; Dose 10.00 uM, primary screen): −0.782 log 2 fold change; Dose.FC.LYZ.NS ([3]; Dose 0.08 uM, primary screen): 0.091 log 2 fold change; Dose.FC.LYZ.NS ([3]; Dose 0.40 uM, primary screen): 0.051 log 2 fold change; Dose.FC.LYZ.NS ([3]; Dose 2.00 uM, primary screen): −0.104 log 2 fold change; Dose.FC.LYZ.NS ([3]; Dose 10.00 uM, primary screen): −0.154 log 2 fold change
2 | COc1cc(Nc2ncc(F)c(Nc3ccc4c(n3)N(COP(=O)(O)O)C(=O)C(C)(C)O4)n2)cc(OC)c1OC [Fostamatinib (R788)] | 0.554 | −0.123 | −0.552 | −2.105 | 1.033 | −0.217 | −0.860 | −2.036 | 0.235 | 0.156 | −0.015 | −0.350 | 0.232 | −0.052 | −0.231 | −0.881 | 0.119 | −0.025 | −0.099 | −0.234 | –
3 | Cn1cc(C2=C(c3cn(C4CCN(Cc5ccccn5)CC4)c4ccccc34)C(=O)NC2=O)c2ccccc21 [Enzastaurin (LY317615)] | 0.565 | 1.135 | 0.600 | −0.194 | 0.744 | 1.143 | 0.458 | −1.012 | 0.109 | 0.251 | 0.053 | −0.226 | 0.236 | 0.475 | 0.251 | −0.081 | 0.085 | 0.131 | 0.053 | −0.116 | –
4 | CNC(=O)c1ccc(N2C(=S)N(c3ccc(C#N)c(C(F)(F)F)c3)C(=O)C2(C)C)cc1F [Enzalutamide (MDV3100)] | 0.465 | 0.611 | 0.181 | 0.348 | 1.411 | 1.446 | 0.210 | 0.820 | 0.176 | 0.276 | 0.077 | 0.076 | 0.195 | 0.256 | 0.076 | 0.146 | 0.162 | 0.166 | 0.024 | 0.094 | –
5 | Cc1cc(-c2ccc(CC(=O)Nc3ccc(-c4cccnc4)cc3)cc2)ccn1 [Wnt-C59 (C59)] | – | – | – | – | – | – | – | – | – | – | – | – | – | – | – | – | – | – | – | – | Dose.FC.LYZ.S (log 2 fold change, carbachol-induced lysozyme secretion) ([1]; dose 0.08 uM): −0.242; Dose.FC.LYZ.S (log 2 fold change, carbachol-induced lysozyme secretion) ([1]; dose 0.40 uM): −0.281; Dose.FC.LYZ.S (log 2 fold change, carbachol-induced lysozyme secretion) ([1]; dose 2.00 uM): −0.313; Dose.FC.LYZ.S (log 2 fold change, carbachol-induced lysozyme secretion) ([1]; dose 10.00 uM): −0.301; Z.CTG (standard z score) ([2]; dose 0.08 uM): −1.366; Dose.FC.CTG (log 2 fold change, ATP) ([2]; dose 0.08 uM): −0.572; Z.CTG (standard z score) ([2]; dose 0.40 uM): −1.461; Dose.FC.CTG (log 2 fold change, ATP) ([2]; dose 0.40 uM): −0.611; Z.CTG (standard z score) ([2]; dose 2.00 uM): −1.498; Dose.FC.CTG (log 2 fold change, ATP) ([2]; dose 2.00 uM): −0.627; Z.CTG (standard z score) ([2]; dose 10.00 uM): −1.465; Dose.FC.CTG (log 2 fold change, ATP) ([2]; dose 10.00 uM): −0.613; Z.LYZ.NS (standard z score) ([3]; dose 0.08 uM): −1.424; Dose.FC.LYZ.NS (log 2 fold change, basal lysozyme secretion) ([3]; dose 0.08 uM): −0.163; Z.LYZ.NS (standard z score) ([3]; dose 0.40 uM): −1.588; Dose.FC.LYZ.NS (log 2 fold change, basal lysozyme secretion) ([3]; dose 0.40 uM): −0.182; Z.LYZ.NS (standard z score) ([3]; dose 2.00 uM): −1.724; Dose.FC.LYZ.NS (log 2 fold change, basal lysozyme secretion) ([3]; dose 2.00 uM): −0.198; Z.LYZ.NS (standard z score) ([3]; dose 10.00 uM): −1.666; Dose.FC.LYZ.NS (log 2 fold change, basal lysozyme secretion) ([3]; dose 10.00 uM): −0.191
6 | Cn1cnc2c(F)c(Nc3ccc(Br)cc3Cl)c(C(=O)NOCCO)cc21 [Selumetinib (AZD6244)] | – | – | – | – | – | – | – | – | – | – | – | – | – | – | – | – | – | – | – | – | Dose.FC.LYZ.S (log 2 fold change) ([1]; Dose 0.08 uM, primary screen): 0.004; Dose.FC.LYZ.S (log 2 fold change) ([1]; Dose 0.40 uM, primary screen): −0.047; Dose.FC.LYZ.S (log 2 fold change) ([1]; Dose 2.00 uM, primary screen): −0.175; Dose.FC.LYZ.S (log 2 fold change) ([1]; Dose 10.00 uM, primary screen): −0.211; Z.CTG (standard z score) ([2]; Dose 0.08 uM, primary screen): 0.393; Dose.FC.CTG (log 2 fold change) ([2]; Dose 0.08 uM, primary screen): 0.164; Z.CTG (standard z score) ([2]; Dose 0.40 uM, primary screen): −0.395; Dose.FC.CTG (log 2 fold change) ([2]; Dose 0.40 uM, primary screen): −0.165; Z.CTG (standard z score) ([2]; Dose 2.00 uM, primary screen): −0.613; Dose.FC.CTG (log 2 fold change) ([2]; Dose 2.00 uM, primary screen): −0.257; Z.CTG (standard z score) ([2]; Dose 10.00 uM, primary screen): −2.035; Dose.FC.CTG (log 2 fold change) ([2]; Dose 10.00 uM, primary screen): −0.852; Z.LYZ.NS (standard z score) ([3]; Dose 0.08 uM, primary screen): 0.181; Dose.FC.LYZ.NS (log 2 fold change) ([3]; Dose 0.08 uM, primary screen): 0.021; Z.LYZ.NS (standard z score) ([3]; Dose 0.40 uM, primary screen): −0.188; Dose.FC.LYZ.NS (log 2 fold change) ([3]; Dose 0.40 uM, primary screen): −0.022; Z.LYZ.NS (standard z score) ([3]; Dose 2.00 uM, primary screen): −0.847; Dose.FC.LYZ.NS (log 2 fold change) ([3]; Dose 2.00 uM, primary screen): −0.097; Z.LYZ.NS (standard z score) ([3]; Dose 10.00 uM, primary screen): −1.220; Dose.FC.LYZ.NS (log 2 fold change) ([3]; Dose 10.00 uM, primary screen): −0.140
7 | Cc1ccc2c(=O)c3cccc(CC(=O)O)c3oc2c1C [DMXAA (Vadimezan)] | −1.357 | −1.502 | −1.139 | −0.550 | −0.065 | −0.317 | −0.334 | −0.271 | −0.091 | −0.009 | −0.094 | −0.118 | −0.568 | −0.629 | −0.477 | −0.230 | −0.007 | −0.036 | −0.038 | −0.031 | –
8 | CN(C)C(=O)Nc1cccc(-c2ccc(N(C)C)cc2)c1 [Atglistatin] | – | – | – | – | – | – | – | – | – | – | – | – | – | – | – | – | – | – | – | – | Dose.FC.LYZ.S [1, 4]: 0.028 log 2 fold change; Dose.FC.LYZ.S [1, 5]: −0.035 log 2 fold change; Dose.FC.LYZ.S [1, 6]: 0.026 log 2 fold change; Dose.FC.LYZ.S [1, 7]: 0.012 log 2 fold change; Dose.FC.CTG [2, 4]: 0.057 log 2 fold change; Z.CTG ([2]; primary screen, dose 0.08 uM): 0.137; Dose.FC.CTG [2, 5]: 0.004 log 2 fold change; Z.CTG ([2]; primary screen, dose 0.40 uM): 0.009; Dose.FC.CTG [2, 6]: −0.045 log 2 fold change; Z.CTG ([2]; primary screen, dose 2.00 uM): −0.108; Dose.FC.CTG [2, 7]: −0.431 log 2 fold change; Z.CTG ([2]; primary screen, dose 10.00 uM): −1.031; Dose.FC.LYZ.NS [3, 4]: 0.069 log 2 fold change; Z.LYZ.NS ([3]; primary screen, dose 0.08 uM): 0.604; Dose.FC.LYZ.NS [3, 5]: 0.135 log 2 fold change; Z.LYZ.NS ([3]; primary screen, dose 0.40 uM): 1.176; Dose.FC.LYZ.NS [3, 6]: 0.070 log 2 fold change; Z.LYZ.NS ([3]; primary screen, dose 2.00 uM): 0.613; Dose.FC.LYZ.NS [3, 7]: −0.016 log 2 fold change; Z.LYZ.NS ([3]; primary screen, dose 10.00 uM): −0.142

Source: patent US20230398130A1, “METHODS AND COMPOSITIONS FOR DIFFERENTIATING STEM CELLS” (Massachusetts Institute of Technology, priority 2020, published 2023)
